Measured values: paper PMC4721142, “Randomized controlled studies on the efficacy of antiarthritic agents in inhibiting cartilage degeneration and pain associated with progression of osteoarthritis in the rat” (Arthritis Research & Therapy, 2016)

What was measured:
NF-κB = test: TNF-α-stimulated NF-κB dual luciferase reporter assay in HeLa cells; format: cell-based
Outline: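 HeLa cells transfected with NF-κB firefly luciferase and Renilla pRLuc-N3 plasmids (8:1), in triplicate; TNF-α stimulation with drug, luminescence read 5 h later by Dual-Glo. Firefly/Renilla ratio normalised to viable transfected cells, expressed as fold over cells without TNF-α or drug.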

MMT/MCLT rat model of OA = test: MMT/MCLT trial 2 histopathology (same doses); format: in vivo; design: key to Total joint score w/o femur / Total joint score: sum: cartilage degeneration scores + mean osteophyte score; settings: mean; i.a., tacrolimus 15 ng
Excerpt: For MMT/MCLT rat knee joints, sections were cut in 200-μm steps; stained with toluidine blue (also with a right and left half per section); and similarly analyzed for cartilage degeneration, proteoglycan loss, collagen damage, and osteophyte formation. Results were averaged across the three sections for an overall semiquantitative score. Regional differences across the tibial plateau were taken into consideration by dividing each section into three zones delineated using an ocular micrometer (outside, middle, and inside). Scores were based on the percentage of area affected within the zone.
Cartilage degeneration in the tibia was scored on a 5-point scale as detailed in the Methods section of Additional file 1. The total extent of degeneration of the tibial plateau was measured (in micrometers) and included an analysis of cell loss, proteoglycan loss, and collagen damage. Significant cartilage degeneration reflecting any degeneration extending through more than 50 % of the cartilage thickness was also measured. Collagen damage across the medial tibial plateau (the most severely affected section of the two halves) was also quantified.
Osteophytes and femoral cartilage degeneration were analyzed as detailed in Additional file 1. Scoring of the osteophytes and categorization into small, medium, and large was performed using an ocular micrometer. The actual osteophyte measurement (tidemark to farthest distance point extending toward the synovium) was also recorded. The femoral cartilage degeneration score and the three-zone sum of the tibial cartilage degeneration scores (mean of three levels) were summed to create a total cartilage degeneration score. The mean osteophyte score for each joint was added to this value to create a total joint score. […]
Histopathology MMT/MCLT Model

COc1ccc(C=CC(=O)Nc2ccccc2C(=O)O)cc1OC [Tranilast, N-(3′,4′-dimethoxycinnamoyl)anthranilic acid]
Effective range against NFkB (NF-κB): None

CC(C)(C)CC(=O)OCC(=O)[C@@]12OC(C)(C)O[C@@H]1C[C@H]1[C@@H]3CCC4=CC(=O)C=C[C@]4(C)[C@@]3(F)[C@@H](O)C[C@@]12C [Triamcinolone hexacetonide]
Femoral cartilage degeneration score (MMT/MCLT rat model of OA): 2.03 ± 0.52
Total joint score (MMT/MCLT rat model of OA): 11.30 ± 1.21

CC1=C(CO)C(=O)O[C@@H]([C@@H](C)[C@H]2CC[C@H]3[C@@H]4C[C@H]5O[C@]56[C@@H](O)C=CC(=O)[C@]6(C)[C@H]4CC[C@]23C)C1 [Withaferin A]
Effective against NF κβ (p<0.05) (NF-κB): 2 to 17 µM
